From ChEMBL document CHEMBL1201862, “PubChem BioAssay data set” (2004)
Activity calls are given as the source filed them.

Tests used:
[1] = target: Neuropeptides B/W receptor type 1 (Homo sapiens, UniProt P48145); assay: human NPBW1 receptor blockade, IC50 – cell-based, fluorescence, dose response, set 5, late-stage follow-up (AID 588566); format: functional
[2] = target: Melanin-concentrating hormone receptor 1 (Homo sapiens, UniProt Q99705); assay: Late-stage fluorescence-based counterscreen for antagonists of the G-protein coupled receptor 7 (GPR7): cell-based dose response assay to identify antagonists of the melanin-concentrating hormone receptor 1 (MCHR1) Set 5.; format: functional
[3] = target: T1, Orexin/Hypocretin receptor type 1 (Homo sapiens, UniProt O43613); assay: Homogeneous Time Resolved Fluorescence (HTRF)-based cell-based high throughput dose response assay for antagonists of the orexin 1 receptor (OX1R; HCRTR1). [Related pubchem assays (depositor defined):AID434989, AID435008, AID463079, AID485270, AID492963, AID492964, AID492965, AID493232, AID504717, AID504718]; format: functional
[4] = (§1) Counterscreen for antagonists of the orexin 1 receptor (OX1R; HCRTR1): Fluorescence-based cell-based high throughput dose response assay to identify antagonists of the parental CHO cell line. [Related pubchem assays (depositor defined):AID434989, AID435008, AID463079, AID485270, AID492963, AID492964, AID492965, AID493232, AID504699, AID504701]; format: functional
Orexin receptor type 2 [5] = target: T2, Orexin receptor type 2 (Homo sapiens, UniProt O43614); assay: Counterscreen assay for antagonists of the orexin 1 receptor (OX1R; HCRTR1): Fluorescence-based cell-based dose response assay for antagonists of the orexin 2 receptor (OX2R; HCRTR2), run by assay provider.; format: functional
CHO-K1 = assay: as §1, with “Homogeneous time resolved fluorescence (HTRF)-based” for “Fluorescence-based”, “cell-based” for “cell-based high throughput”, “CHO-K1” for “CHO”; format: functional; conditions: Cricetulus griseus;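 further: potency for inhibition of ATP-stimulated IP1 production as antagonists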
Orexin receptor type 2 [6] = target: T2, Orexin receptor type 2; assay: Counterscreen assay for antagonists of the orexin 1 receptor (OX1R; HCRTR1): Homogeneous Time Resolved Fluorescence (HTRF)-based cell-based dose response assay for antagonists of the orexin 2 receptor (OX2R; HCRTR2), run by assay provider.; format: functional
[7] = target: T1, Orexin/Hypocretin receptor type 1; assay: Fluorescence-based cell-based high throughput dose response assay for antagonists of the orexin 1 receptor (OX1R; HCRTR1). [Related pubchem assays (depositor defined):AID434989, AID435008, AID463079, AID485270, AID492963, AID492964, AID492965, AID493232, AID504717, AID504718]; format: functional
LIM domain kinase 1 = LIM domain kinase 1 (Homo sapiens, UniProt P53667); assay: Navigating the Kinome. Panel member name: LIMK1; format: functional
[8] = target: Cell division cycle 7-related protein kinase (Homo sapiens, UniProt O00311); format: functional;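 further: value obtained from a kinome-wide kinase panel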
Wee1-like protein kinase = Wee1-like protein kinase (Homo sapiens, UniProt P30291); assay: Navigating the Kinome. Panel member name: WEE1; format: functional
[9] = Vero cell cytotoxicity, dose response, cytotoxicity control for M. tuberculosis growth inhibitor project, Vero cells, purified and synthesized compounds, set 4 (AID 504854); format: functional; conditions: Mycobacterium tuberculosis
[10] = THP-1 cell cytotoxicity, cytotoxicity control, set 4 (AID 504911); format: functional; conditions: Mycobacterium tuberculosis
[11] = target: Death-associated protein kinase 3 (Homo sapiens, UniProt O43293); format: functional;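 further: measured as one member of a kinome-wide profiling panel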
[12] = target: Vascular endothelial growth factor receptor 1 (Homo sapiens, UniProt P17948); format: functional;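 further: measured within a kinome-wide profiling panel, FLT1 as the panel member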
[13] = target: Dual specificity tyrosine-phosphorylation-regulated kinase 1A (Homo sapiens, UniProt Q13627); format: functional;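 further: measured against DYRK1A as one member of a broad kinome profiling panel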
Aurora kinase A = Aurora kinase A (Homo sapiens, UniProt O14965); format: functional;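 further: value from the Navigating the Kinome kinase panel profiling, panel entry STK6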
[14] = target: Vascular endothelial growth factor receptor 2 (Homo sapiens, UniProt P35968); format: functional
Aurora kinase B = Aurora kinase B (Homo sapiens, UniProt Q96GD4); format: functional
[15] = Luminescence Cell-Based Dose Retest to Confirm Inhibitors of Cancer Stem Cells. [Related pubchem assays (depositor defined):AID2717, AID2721]; format: functional; conditions: Homo sapiens
[16] = cAMP pathway inhibition in counterscreen cell line – TR-FRET cAMP detection, counter-screen for MC4R biased antagonist project, dose response (AID 602305); format: functional, cell-based;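 further: U2OS cells stimulated with forskolin near its EC80 as the cAMP inducer; potency is for inhibition of forskolin-stimulated cAMP signaling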
[17] = target: T3, Microphthalmia-associated transcription factor (Homo sapiens, UniProt O75030); assay: reducers of TRPM1 reporter luminescence, concentration series – cell-based, SK-MEL-5, cherry-picked, set 3, MITF inhibitor project, dose response (AID 493073); format: functional;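 further: SK-MEL-5 melanoma cells with luciferase driven by the MITF target TRPM1 promoter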
T3 sequence (O75030 whole entry): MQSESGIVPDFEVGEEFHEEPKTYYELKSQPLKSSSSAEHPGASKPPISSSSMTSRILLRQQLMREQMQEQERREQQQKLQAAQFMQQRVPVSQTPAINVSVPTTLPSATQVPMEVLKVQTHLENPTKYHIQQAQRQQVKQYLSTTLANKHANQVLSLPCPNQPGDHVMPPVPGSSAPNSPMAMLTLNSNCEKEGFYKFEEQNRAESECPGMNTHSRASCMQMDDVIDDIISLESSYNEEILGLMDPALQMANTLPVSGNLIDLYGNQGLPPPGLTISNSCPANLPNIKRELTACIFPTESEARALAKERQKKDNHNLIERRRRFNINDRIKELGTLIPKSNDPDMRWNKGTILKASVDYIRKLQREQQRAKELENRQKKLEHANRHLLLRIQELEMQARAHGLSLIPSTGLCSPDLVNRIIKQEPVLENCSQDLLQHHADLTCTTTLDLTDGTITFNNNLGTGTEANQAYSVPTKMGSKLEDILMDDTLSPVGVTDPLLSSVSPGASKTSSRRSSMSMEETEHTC

Melanocortin receptor 4 = Melanocortin receptor 4 (Homo sapiens, UniProt P32245); assay: inhibitors of MC4R cAMP signaling – cell-based, TR-FRET, biased antagonists, dose response (AID 602298); format: functional;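 further: antagonist potency against agonist-stimulated cAMP production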
Chain of Melanocortin receptor 4 (P32245 whole entry): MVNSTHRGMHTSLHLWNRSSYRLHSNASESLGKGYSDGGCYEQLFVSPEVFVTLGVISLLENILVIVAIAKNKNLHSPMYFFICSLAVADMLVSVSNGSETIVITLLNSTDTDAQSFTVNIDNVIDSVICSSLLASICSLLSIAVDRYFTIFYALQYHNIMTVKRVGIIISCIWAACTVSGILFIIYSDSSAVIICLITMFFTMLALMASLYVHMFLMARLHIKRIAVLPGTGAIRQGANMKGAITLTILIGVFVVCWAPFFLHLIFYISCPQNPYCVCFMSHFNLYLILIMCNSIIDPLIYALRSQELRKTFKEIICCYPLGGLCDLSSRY

T1 sequence (O43613 whole entry): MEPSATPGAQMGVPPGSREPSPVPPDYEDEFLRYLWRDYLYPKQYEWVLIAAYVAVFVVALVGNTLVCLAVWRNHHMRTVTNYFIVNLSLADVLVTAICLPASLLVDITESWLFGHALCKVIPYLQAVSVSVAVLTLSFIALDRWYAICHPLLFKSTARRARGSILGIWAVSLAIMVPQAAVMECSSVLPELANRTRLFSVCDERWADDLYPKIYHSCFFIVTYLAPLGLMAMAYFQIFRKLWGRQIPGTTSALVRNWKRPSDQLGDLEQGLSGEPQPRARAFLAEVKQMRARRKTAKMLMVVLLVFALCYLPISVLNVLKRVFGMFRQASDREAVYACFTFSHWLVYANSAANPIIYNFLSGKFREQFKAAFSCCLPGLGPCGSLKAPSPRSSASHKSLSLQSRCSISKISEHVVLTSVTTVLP
T2 sequence (O43614 whole entry): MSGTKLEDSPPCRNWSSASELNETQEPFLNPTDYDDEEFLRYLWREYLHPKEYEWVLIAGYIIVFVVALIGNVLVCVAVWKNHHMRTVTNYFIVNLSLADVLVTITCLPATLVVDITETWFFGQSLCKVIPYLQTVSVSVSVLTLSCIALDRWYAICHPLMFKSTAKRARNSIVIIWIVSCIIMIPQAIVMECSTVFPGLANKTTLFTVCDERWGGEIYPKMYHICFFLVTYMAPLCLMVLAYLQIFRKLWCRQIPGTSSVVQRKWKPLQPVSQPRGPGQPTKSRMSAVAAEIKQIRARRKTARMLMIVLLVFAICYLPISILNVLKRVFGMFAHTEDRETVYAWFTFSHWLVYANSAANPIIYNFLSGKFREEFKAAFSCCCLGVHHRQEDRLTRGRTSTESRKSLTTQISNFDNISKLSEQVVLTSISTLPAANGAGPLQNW
Chain of Wee1-like protein kinase (P30291 whole entry): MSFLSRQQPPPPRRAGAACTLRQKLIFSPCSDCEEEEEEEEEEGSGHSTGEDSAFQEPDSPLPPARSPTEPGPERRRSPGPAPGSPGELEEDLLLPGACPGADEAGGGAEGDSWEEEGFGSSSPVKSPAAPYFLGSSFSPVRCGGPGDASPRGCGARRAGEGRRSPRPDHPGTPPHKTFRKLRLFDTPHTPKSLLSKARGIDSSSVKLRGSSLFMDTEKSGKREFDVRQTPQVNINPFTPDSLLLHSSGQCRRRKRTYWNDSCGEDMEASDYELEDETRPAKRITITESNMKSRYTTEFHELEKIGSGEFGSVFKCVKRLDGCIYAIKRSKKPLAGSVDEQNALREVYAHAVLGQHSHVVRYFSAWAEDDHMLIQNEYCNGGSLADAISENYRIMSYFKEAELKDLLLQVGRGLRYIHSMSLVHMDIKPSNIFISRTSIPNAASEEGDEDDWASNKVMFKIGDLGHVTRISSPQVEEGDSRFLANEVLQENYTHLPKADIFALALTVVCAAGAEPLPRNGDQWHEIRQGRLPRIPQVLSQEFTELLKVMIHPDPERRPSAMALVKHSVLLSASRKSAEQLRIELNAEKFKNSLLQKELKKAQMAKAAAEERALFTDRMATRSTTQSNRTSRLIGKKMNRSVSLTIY
Chain of Neuropeptides B/W receptor type 1 (P48145 whole entry): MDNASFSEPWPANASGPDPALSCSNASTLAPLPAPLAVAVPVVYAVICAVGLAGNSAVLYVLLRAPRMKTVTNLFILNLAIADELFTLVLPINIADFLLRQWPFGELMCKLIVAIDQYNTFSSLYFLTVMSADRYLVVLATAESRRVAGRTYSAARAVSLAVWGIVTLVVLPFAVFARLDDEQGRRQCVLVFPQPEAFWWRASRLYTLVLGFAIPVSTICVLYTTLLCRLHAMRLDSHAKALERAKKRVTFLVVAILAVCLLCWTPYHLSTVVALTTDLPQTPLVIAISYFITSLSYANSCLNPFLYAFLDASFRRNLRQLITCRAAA
Chain of Vascular endothelial growth factor receptor 2 (P35968 whole entry): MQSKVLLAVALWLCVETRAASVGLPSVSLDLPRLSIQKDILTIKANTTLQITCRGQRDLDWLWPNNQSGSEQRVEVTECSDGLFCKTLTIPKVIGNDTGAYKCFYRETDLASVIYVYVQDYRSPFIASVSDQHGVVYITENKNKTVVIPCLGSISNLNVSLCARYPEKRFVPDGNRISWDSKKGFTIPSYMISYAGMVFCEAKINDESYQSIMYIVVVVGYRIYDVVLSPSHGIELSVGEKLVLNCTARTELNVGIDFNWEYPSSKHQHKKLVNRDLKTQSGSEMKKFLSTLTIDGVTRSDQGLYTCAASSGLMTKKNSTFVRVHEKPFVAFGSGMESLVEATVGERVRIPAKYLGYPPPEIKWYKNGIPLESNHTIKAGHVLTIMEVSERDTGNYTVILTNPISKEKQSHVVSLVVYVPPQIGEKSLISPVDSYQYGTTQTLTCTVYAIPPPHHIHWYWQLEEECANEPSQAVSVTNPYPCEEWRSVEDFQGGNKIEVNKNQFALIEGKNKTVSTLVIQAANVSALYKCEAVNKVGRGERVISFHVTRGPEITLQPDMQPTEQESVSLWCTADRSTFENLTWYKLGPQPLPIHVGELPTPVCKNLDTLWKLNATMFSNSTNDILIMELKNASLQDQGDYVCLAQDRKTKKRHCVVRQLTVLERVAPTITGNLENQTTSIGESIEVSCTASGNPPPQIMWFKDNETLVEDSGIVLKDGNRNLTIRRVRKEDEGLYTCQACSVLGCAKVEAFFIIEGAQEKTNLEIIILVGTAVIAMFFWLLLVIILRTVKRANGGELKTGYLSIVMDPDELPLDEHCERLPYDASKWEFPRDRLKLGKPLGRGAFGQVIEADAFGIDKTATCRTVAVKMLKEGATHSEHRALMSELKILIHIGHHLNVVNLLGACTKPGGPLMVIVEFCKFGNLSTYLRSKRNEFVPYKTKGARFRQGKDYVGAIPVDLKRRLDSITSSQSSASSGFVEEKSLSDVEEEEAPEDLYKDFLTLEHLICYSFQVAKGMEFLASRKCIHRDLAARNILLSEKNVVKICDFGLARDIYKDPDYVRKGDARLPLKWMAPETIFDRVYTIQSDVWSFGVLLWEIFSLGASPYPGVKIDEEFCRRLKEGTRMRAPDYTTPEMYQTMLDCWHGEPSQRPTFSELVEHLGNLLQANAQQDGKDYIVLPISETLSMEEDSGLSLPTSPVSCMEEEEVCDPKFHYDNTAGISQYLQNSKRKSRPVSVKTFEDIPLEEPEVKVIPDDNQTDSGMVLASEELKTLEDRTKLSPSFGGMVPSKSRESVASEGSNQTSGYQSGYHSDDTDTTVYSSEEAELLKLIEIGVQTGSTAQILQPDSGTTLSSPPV
Chain of Cell division cycle 7-related protein kinase (O00311 whole entry): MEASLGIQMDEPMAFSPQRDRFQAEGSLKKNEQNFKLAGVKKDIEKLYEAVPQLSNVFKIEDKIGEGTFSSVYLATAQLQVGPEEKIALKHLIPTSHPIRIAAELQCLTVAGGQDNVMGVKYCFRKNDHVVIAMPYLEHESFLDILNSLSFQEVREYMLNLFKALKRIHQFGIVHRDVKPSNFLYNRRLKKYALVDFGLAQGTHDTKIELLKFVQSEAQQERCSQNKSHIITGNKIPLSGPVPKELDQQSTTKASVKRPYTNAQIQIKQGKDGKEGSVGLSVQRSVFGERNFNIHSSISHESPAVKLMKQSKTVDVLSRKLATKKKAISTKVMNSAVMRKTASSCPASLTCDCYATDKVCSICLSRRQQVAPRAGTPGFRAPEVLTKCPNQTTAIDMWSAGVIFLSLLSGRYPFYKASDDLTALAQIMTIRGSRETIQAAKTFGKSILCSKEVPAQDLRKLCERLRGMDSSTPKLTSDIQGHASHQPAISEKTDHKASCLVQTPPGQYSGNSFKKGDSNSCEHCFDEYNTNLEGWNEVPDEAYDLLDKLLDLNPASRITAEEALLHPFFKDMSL
Chain of LIM domain kinase 1 (P53667 whole entry, the tested form may be a part): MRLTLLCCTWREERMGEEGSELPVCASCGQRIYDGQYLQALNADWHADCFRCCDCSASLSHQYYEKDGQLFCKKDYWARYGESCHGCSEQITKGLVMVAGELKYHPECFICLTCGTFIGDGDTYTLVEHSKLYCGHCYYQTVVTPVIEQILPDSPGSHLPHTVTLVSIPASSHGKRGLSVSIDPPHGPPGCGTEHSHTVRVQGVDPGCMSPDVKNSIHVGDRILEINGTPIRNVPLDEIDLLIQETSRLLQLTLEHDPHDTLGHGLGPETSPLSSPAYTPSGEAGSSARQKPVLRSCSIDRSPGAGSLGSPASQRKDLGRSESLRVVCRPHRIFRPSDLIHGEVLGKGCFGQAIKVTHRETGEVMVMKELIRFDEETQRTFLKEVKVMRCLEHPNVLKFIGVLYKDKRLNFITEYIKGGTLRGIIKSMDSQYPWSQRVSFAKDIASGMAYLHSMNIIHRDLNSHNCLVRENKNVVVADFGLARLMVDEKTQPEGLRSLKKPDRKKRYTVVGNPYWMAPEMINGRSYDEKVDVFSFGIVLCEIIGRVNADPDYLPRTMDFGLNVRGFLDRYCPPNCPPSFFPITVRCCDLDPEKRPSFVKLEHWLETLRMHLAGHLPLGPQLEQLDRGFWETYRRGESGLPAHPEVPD

**Q.** For `CCOC(=O)C(C#N)c1c(Cl)cnn(Cc2cccc3ccccc23)c1=O` (stereo not drawn), which IC50 [1] is on record?
**A.** 0.571 µM (active)

**Q.** And the IC50 [2]?
**A.** 7.76 µM (active)

**Q.** Which IC50 [3] does the source give for `Cc1ccc([C@@H]2CC=C(C(=O)O)[C@H](c3cccc(Cl)c3)N2S(=O)(=O)c2ccccc2C)cc1` here?
**A.** 0.601 µM (active)

**Q.** What about the IC50 [4] of the same compound?
**A.** 18.7 µM (inactive)

**Q.** What about the IC50 (Orexin receptor type 2 [5]) of the same compound?
**A.** 3.9 µM (active)

**Q.** What about the IC50 (CHO-K1) of the same compound?
**A.** > 66.2 µM (inactive)

**Q.** And the IC50 (Orexin receptor type 2 [6])?
**A.** 0.67 µM (active)

**Q.** What about the IC50 [7] of the same compound?
**A.** 4.6 µM (active)

**Q.** Which Ki (LIM domain kinase 1) does the source give for `CCc1ccc(NC(=O)c2cnn3c(-c4ccccc4)ccnc23)cc1` here?
**A.** 3.16 µM (active)

**Q.** For `Fc1ccc(Nc2ncnc(Nc3ccc4[nH]ncc4c3)n2)cc1`, which Ki [8] is on record?
**A.** 0.126 µM (active)

**Q.** And the Ki (Wee1-like protein kinase)?
**A.** > 3.16 µM (inactive)

**Q.** Which CC50 [9] does the source give for `O=C(CSc1nc2ccccc2c(=O)[nH]1)NC1CCCC1` here?
**A.** > 100 µM (active)

**Q.** What about the CC50 [10] of the same compound?
**A.** > 100 µM (active)

**Q.** Which Ki [11] does the source give for `O=c1sn(-c2ccc3c(c2)OCO3)c(=O)n1Cc1ccccc1` here?
**A.** 3.16 µM (active)

**Q.** What about the Ki [12] of the same compound?
**A.** 2 µM (active)

**Q.** And the Ki [13]?
**A.** 1.26 µM (active)

**Q.** For `CCS(=O)(=O)Nc1ccc2c(c1)C(=NO)c1ccccc1-2`, which Ki (Aurora kinase A) is on record?
**A.** 0.631 µM (active)

**Q.** What about the Ki [14] of the same compound?
**A.** 3.16 µM (active)

**Q.** What about the Ki (Aurora kinase B) of the same compound?
**A.** 0.0316 µM (active)

**Q.** Which AC50 [15] does the source give for `CCOC(=O)C(=Cc1ccc(-n2ccnc2)cc1)C(=O)OCC` here?
**A.** 2.95 µM (active)

**Q.** And the IC50 [16]?
**A.** > 64.6 µM (inactive)

**Q.** What about the AC50 [17] of the same compound?
**A.** 9.38 µM (active)

**Q.** What about the IC50 (Melanocortin receptor 4) of the same compound?
**A.** > 64.6 µM (inactive)
